Measured values taken from US20030055104A1, “Method, composition and kit to remove lice ova from the hair” (priority 2000, published 2003).

Assays:
[1] = cited from earlier work
[2] = system: nit attached to human hair strand; assay: Force required to dislodge a nit from a treated hair strand with a nit comb (INSTRON 1123 / CORREX Gram Gage); parameters: species or system lice; settings: in vitro studies
Method: FIG. 1 is a diagram of the test setup whereby the force required to dislodge a nit from a human hair strand with a nit comb was measured.
FIG. 2 is a view showing the positioning of the nit and hair strand between the teeth of the comb shown in the test setup of FIG. 1.
The nit-loosening effectiveness of the novel compositions and the methods of treatment employing them were tested extensively using an INSTRON® 1123 Universal Testing Instrument (Instron Corp. Canton, Mass.). This instrument, in conjunction with a CORREX® Gram Gage (SPI, Switzerland), measures the force required to loosen nits from a hair shaft and records it on paper.
Laboratory tests were performed to measure the decrease in the combing force required to remove nits from hair strands treated with various compositions of the invention as compared with controls and with prior art egg-loosening compositions.
1. Hair strand 10 with nit 12 attached.
2. Fine tooth plastic nit comb 14.
3. Controls and test compositions.
4. INSTRON® 1123 Universal Testing Instrument 16 (Instron Corp., Canton, Mass.) with a 0-50 kg load cell 18.
5. CORREX® Gram Gage 20-2-15 g with flat tip (SPI, Switzerland).
6. Clamp plate assembly 22.
7. […]
e) Start the Instron, and the force required to loosen the nits will be recorded by the paper chart recorder 30, and can also be read on the Gram Gage 20. […]

## CO[C@H]1CO[C@H]2[C@@H]1OC[C@H]2OC [Dimethyl isosorbide, 1,4:3,6 dianhydro-2,5-di-o-methyl-D-glucitol]
[1]
  solubility (in words): water and oil-soluble
[2]
  nit-loosening effectiveness (in words): good nit-loosening utility
